The first assay has as its target T1, HIF-PH2 (EGLN1) (Homo sapiens, UniProt Q9GZT9).
T1 construct: made in house; host or cells: insect Hi5 cells
The assay can be described thus: HIF-PH assay (14CO2 capture, peptide-dependent turnover). It is filed as biochemical. The settings on record: Concentration 22 μM. From the text: Ketoglutaric acid α-[1-^14C]-sodium salt, alpha-ketoglutaric acid sodium salt, and HPLC purified peptide may be obtained from commercial sources, e.g., Perkin-Elmer (Wellesley Mass.), Sigma-Aldrich, and SynPep Corp. (Dublin Calif.), respectively. Peptides for use in the assay may be fragments of HIFα as described above or as disclosed in International Publication WO 2005/118836, incorporated by reference herein. HIF-PH, e.g., HIF-PH2 (EGLN1), can be expressed in, e.g., insect Hi5 cells, and partially purified, e.g., through a SP ion exchange chromatography column. Enzyme activity is determined by capturing ^14CO2 using an assay described by Kivirikko and Myllyla (1982, Methods Enzymol. 82:245-304). Assay reactions contain 50 mM HEPES (pH 7.4), 100 μM α-ketoglutaric acid sodium salt, 0.30 μCi/mL ketoglutaric acid α-[1-^14C]-sodium salt, 40 μM FeSO4, 1 mM ascorbate, 1541.8 units/mL Catalase, with or without 50 μM peptide substrate and various concentrations of compound of the invention. Reactions are initiated by addition of HIF-PH enzyme.
The peptide-dependent percent turnover is calculated by subtracting percent turnover in the absence of peptide from percent turnover in the presence of substrate peptide. Percent inhibition and IC50 are calculated using peptide-dependent percent turnover at given inhibitor concentrations. Calculation of IC50 values for each inhibitor is conducted using GraFit software (Erithacus Software Ltd., Surrey UK).
Representative compounds of the invention were analyzed using the HIF-PH assay described above. Table 1 presents enzyme inhibition data for exemplary compounds against HIF-PH2, a representative HIF prolyl hydroxylase. By inhibiting HIF prolyl hydroxylase, compounds of the invention stabilize HIFα, which then combines with HIFβ to form an active transcription factor that increases expression of various genes involved in numerous beneficial cellular processes.
T1 sequence (Q9GZT9 whole entry, species assumed): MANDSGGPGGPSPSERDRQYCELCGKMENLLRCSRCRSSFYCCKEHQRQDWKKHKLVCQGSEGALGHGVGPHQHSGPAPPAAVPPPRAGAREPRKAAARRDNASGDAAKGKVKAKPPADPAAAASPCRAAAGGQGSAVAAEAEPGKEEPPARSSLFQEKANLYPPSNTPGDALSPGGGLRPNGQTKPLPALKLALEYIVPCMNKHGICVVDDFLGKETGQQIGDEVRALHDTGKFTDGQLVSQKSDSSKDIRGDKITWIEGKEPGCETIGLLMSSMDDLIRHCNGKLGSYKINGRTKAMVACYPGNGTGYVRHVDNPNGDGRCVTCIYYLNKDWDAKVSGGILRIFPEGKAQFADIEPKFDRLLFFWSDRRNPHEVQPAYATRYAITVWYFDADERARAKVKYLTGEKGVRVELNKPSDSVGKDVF
For `O=C(O)CNC(=O)c1c(O)c2c(Cl)c(Cl)c(Cl)n2n(Cc2ccccc2)c1=O` [Example 2, [(1-Benzyl-5,6,7-trichloro-4-hydroxy-2-oxo-1,2-dihydro-pyrrolo[1,2-b]pyridazine-3-carbonyl)-amino]-acetic acid], testing at 22 µM gave an inhibition of 99%.

Still in this assay, the particulars now being: Concentration 50 μM.
For `O=C(O)CNC(=O)c1c(O)c2cc(Cl)cn2n(Cc2ccccn2)c1=O` [Example 40, [(6-Chloro-4-hydroxy-2-oxo-1-pyridin-2-ylmethyl-1,2-dihydro-pyrrolo[1,2-b]pyridazine-3-carbonyl)-amino]-acetic acid], testing at 50 µM gave an inhibition of 95%.

Consider `O=C(O)CNC(=O)c1c(O)c2cc3ccc(C(F)(F)F)cc3n2n(Cc2ccc(F)cc2)c1=O` [Example 43, {[4-(4-Fluoro-benzyl)-1-hydroxy-3-oxo-6-trifluoromethyl-3,4-dihydro-4,4a-diaza-fluorene-2-carbonyl]-amino}-acetic acid], for which testing at 50 µM gave an inhibition of 99%.

Molecule `C[C@H](NC(=O)c1c(O)c2cccn2n(Cc2ccc(C(F)(F)F)cc2)c1=O)C(=O)O` [Example 24, 2-(S)-{[4-Hydroxy-2-oxo-1-(4-trifluoromethyl-benzyl)-1,2-dihydro-pyrrolo[1,2-b]pyridazine-3-carbonyl]-amino}-propionic acid] came in with an inhibition at 50 µM of 98%.

Consider `O=C(O)CNC(=O)c1c(O)c2cc3cc(F)ccc3n2n(Cc2ccc(F)cc2)c1=O` [Example 21, {[7-Fluoro-4-(4-fluoro-benzyl)-1-hydroxy-3-oxo-3,4-dihydro-4,4a-diaza-fluorene-2-carbonyl]-amino}-acetic acid], for which the inhibition at 50 µM was 99%.

In turn, `C[C@H](NC(=O)c1c(O)c2cc(Cl)cn2n(Cc2ccccn2)c1=O)C(=O)O` [Example 41, 2-(S)-[(6-Chloro-4-hydroxy-2-oxo-1-pyridin-2-ylmethyl-1,2-dihydro-pyrrolo[1,2-b]pyridazine-3-carbonyl)-amino]-propionic acid] showed an inhibition at 50 µM of 91%.

As for `C[C@H](NC(=O)c1c(O)c2cc(Cl)cn2n(Cc2ccc(C(F)(F)F)cc2)c1=O)C(=O)O` [Example 23, 2-(S)-{[6-Chloro-4-hydroxy-2-oxo-1-(4-trifluoromethyl-benzyl)-1,2-dihydro-pyrrolo[1,2-b]pyridazine-3-carbonyl]-amino}-propionic acid], testing at 50 µM gave an inhibition of 98%.

Molecule `C[C@H](NC(=O)c1c(O)c2cc3ccccc3n2n(Cc2ccc(F)cc2)c1=O)C(=O)O` [Example 19, 2-(S)-{[4-(4-Fluoro-benzyl)-1-hydroxy-3-oxo-3,4-dihydro-4,4a-diaza-fluorene-2-carbonyl]-amino}-propionic acid] gave an inhibition at 50 µM of 99%.

The same assay, now with this note: Concentration 67 μM.
Molecule `O=C(O)CNC(=O)c1c(O)c2cc(-c3ccccc3)cn2n(Cc2ccc(C(F)(F)F)cc2)c1=O` [Example 37, {[4-Hydroxy-2-oxo-6-phenyl-1-(4-trifluoromethyl-benzyl)-1,2-dihydro-pyrrolo[1,2-b]pyridazine-3-carbonyl]-amino}-acetic acid] came in with an inhibition at 67 µM of 99%.

As to `O=C(O)CNC(=O)c1c(O)c2cc(Cl)cn2n(Cc2cccnc2)c1=O` [Example 38, [(6-Chloro-4-hydroxy-2-oxo-1-pyridin-3-ylmethyl-1,2-dihydro-pyrrolo[1,2-b]pyridazine-3-carbonyl)-amino]-acetic acid], the inhibition at 67 µM turned out to be 99%.

Turning to `C[C@@H](NC(=O)c1c(O)c2cc(Cl)cn2n(Cc2ccc(-c3ccccc3)cc2)c1=O)C(=O)O` [Example 36, 2-(R)-{[6-Chloro-1-(4-phenyl-benzyl)-4-hydroxy-2-oxo-1,2-dihydro-pyrrolo[1,2-b]pyridazine-3-carbonyl]-amino}-propionic acid], at 67 µM the inhibition was 98%.

`C[C@H](NC(=O)c1c(O)c2cc3ccc(C(F)(F)F)cc3n2n(Cc2ccc(F)cc2)c1=O)C(=O)O` [Example 44, 2-(S)-{[4-(4-Fluoro-benzyl)-1-hydroxy-3-oxo-6-trifluoromethyl-3,4-dihydro-4,4a-diaza-fluorene-2-carbonyl]-amino}-propionic acid] registered an inhibition at 67 µM of 89%.

On to `O=C(O)CNC(=O)c1c(O)c2cc(Cl)cn2n(Cc2ccc(F)cc2)c1=O` [Example 26, {[6-Chloro-4-hydroxy-2-oxo-1-(4-fluoro-benzyl)-1,2-dihydro-pyrrolo[1,2-b]pyridazine-3-carbonyl]-amino}-acetic acid], for which at 67 µM the inhibition was 98%.

Staying with this assay, now noted: Concentration 125 μM.
Take `O=C(O)CNC(=O)c1c(O)c2cccn2n(Cc2ccccc2C(F)(F)F)c1=O` [Example 16, {[1-(2-Trifluoromethyl-benzyl)-4-hydroxy-2-oxo-1,2-dihydro-pyrrolo[1,2-b]pyridazine-3-carbonyl]-amino}-acetic acid]: the inhibition at 125 µM worked out at 98%.

Take `O=C(O)CNC(=O)c1c(O)c2cccn2n(Cc2cccc(C(F)(F)F)c2)c1=O` [Example 13, {[1-(3-Trifluoromethyl-benzyl)-4-hydroxy-2-oxo-1,2-dihydro-pyrrolo[1,2-b]pyridazine-3-carbonyl]-amino}-acetic acid]: the inhibition at 125 µM was 97%.

Take `O=C(O)CNC(=O)c1c(O)c2cccn2n(Cc2cccc(F)c2)c1=O` [Example 14, {[1-(3-Fluoro-benzyl)-4-hydroxy-2-oxo-1,2-dihydro-pyrrolo[1,2-b]pyridazine-3-carbonyl]-amino}-acetic acid]: the inhibition at 125 µM is 98%.

The same assay, now with this note: Concentration 200 μM.
`O=C(O)CNC(=O)c1c(O)c2cccn2n(Cc2ccc(C(F)(F)F)cc2)c1=O` [Example 10, {[1-(4-Trifluoromethyl-benzyl)-4-hydroxy-2-oxo-1,2-dihydro-pyrrolo[1,2-b]pyridazine-3-carbonyl]-amino}-acetic acid] yielded an inhibition at 200 µM of 100%.

Turning to `COc1ccc(Cn2c(=O)c(C(=O)NCC(=O)O)c(O)c3cccn32)cc1` [Example 12, {[1-(4-Methoxy-benzyl)-4-hydroxy-2-oxo-1,2-dihydro-pyrrolo[1,2-b]pyridazine-3-carbonyl]-amino}-acetic acid], the inhibition at 200 µM turned out to be 100%.

The molecule `CC[C@H](NC(=O)c1c(O)c2cccn2n(Cc2ccc(C(F)(F)F)cc2)c1=O)C(=O)O` [Example 25, 2-(S)-{[4-Hydroxy-2-oxo-1-(4-trifluoromethyl-benzyl)-1,2-dihydro-pyrrolo[1,2-b]pyridazine-3-carbonyl]-amino}-butyric acid] gave an inhibition at 200 µM of 98%.

`O=C(O)CNC(=O)c1c(O)c2cccn2n(Cc2ccc(F)cc2F)c1=O` [Example 6, {[1-(2,4-Difluoro-benzyl)-4-hydroxy-2-oxo-1,2-dihydro-pyrrolo[1,2-b]pyridazine-3-carbonyl]-amino}-acetic acid] gave an inhibition at 200 µM of 100%.

For the origin of these results see US8217043B2, “Compounds and methods for their use” (Fibrogen, Inc., priority 2008, dated 2012).
